{"source": "patent US20150210669A1", "about": "“COMPOUND FOR THE TREATMENT OF TUMOURS AND TUMOUR METASTASES” (SIENA BIOTECH S.P.A., priority 2010, published 2015)", "key": {"Hh pathway": {"system": "Hh pathway", "experiment": "alkaline phosphatase-based assay of Hh pathway inactivation", "type": "cell-based", "conditions": "alkaline phosphatase-based assay described in WO2009074300", "description": "The level of inactivation of the Hh pathway resulting from this binding was determined using the alkaline phosphatase-based assay described in WO2009074300, resulting in an IC50 value below 30 nM."}, "Smo receptor": {"molecular_target": "Smo receptor (Homo sapiens, UniProt Q99835)", "sequence (Q99835 28-787)": "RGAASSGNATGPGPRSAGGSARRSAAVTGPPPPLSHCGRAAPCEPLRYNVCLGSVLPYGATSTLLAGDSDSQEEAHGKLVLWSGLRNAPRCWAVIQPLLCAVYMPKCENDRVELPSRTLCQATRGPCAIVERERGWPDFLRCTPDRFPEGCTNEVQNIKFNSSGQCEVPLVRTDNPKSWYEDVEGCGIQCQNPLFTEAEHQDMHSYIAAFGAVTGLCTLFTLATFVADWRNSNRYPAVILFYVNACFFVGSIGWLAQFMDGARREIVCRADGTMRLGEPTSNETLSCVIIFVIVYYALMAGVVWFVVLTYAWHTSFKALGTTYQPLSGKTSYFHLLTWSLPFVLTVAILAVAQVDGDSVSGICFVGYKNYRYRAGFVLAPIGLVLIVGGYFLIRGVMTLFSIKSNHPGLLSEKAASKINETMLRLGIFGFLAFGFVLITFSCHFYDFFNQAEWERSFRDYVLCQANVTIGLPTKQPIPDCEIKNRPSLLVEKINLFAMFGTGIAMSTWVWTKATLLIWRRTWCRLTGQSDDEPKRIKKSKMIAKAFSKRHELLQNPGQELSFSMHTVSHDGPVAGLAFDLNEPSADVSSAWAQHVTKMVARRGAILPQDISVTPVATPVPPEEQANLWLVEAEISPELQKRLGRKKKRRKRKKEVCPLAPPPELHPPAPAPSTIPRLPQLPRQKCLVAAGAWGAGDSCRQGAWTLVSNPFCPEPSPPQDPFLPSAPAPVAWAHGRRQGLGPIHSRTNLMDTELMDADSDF", "experiment": "competitive binding assay displacing fluorescently-labeled Bodipy-Cyclopamine", "conditions": "displacement of Bodipy-Cyclopamine; assay described in WO2009074300; read-out: Ki, binding affinity with the Smo receptor"}}}
{"compound": "Cc1ccc(-c2cc(N3CCC(C(=O)N4CCN(C)CC4)CC3)ccc2Cl)nc1", "note": "[Compound C, {1-[4-Chloro-3-(5-methyl-pyridin-2-yl)-phenyl]-piperidin-4-yl}-(4-methyl-piperazin-1-yl)-methanone]", "values": [{"measurement": "IC50", "setting": "Hh pathway", "result": "< 30", "unit": "nM"}, {"measurement": "Ki", "setting": "Smo receptor", "result": "< 100", "unit": "nM"}]}
